Test: Solubility assessment (visual) of selinexor in solvents and solvent mixtures
Format: physicochemical
Conditions: any of the MTBE:heptane mixtures investigated

With O=C(/C=C\n1cnc(-c2cc(C(F)(F)F)cc(C(F)(F)F)c2)n1)NNc1cnccn1 [Selinexor, (Z)-3-(3-(3,5-bis(trifluoromethyl)phenyl)-1H-1,2,4-triazol-1-yl)-N′-(pyrazin-2-yl)acrylohydrazide] the Solubility was > 100 volumes.
